Experimental data reported in PubChem BioAssay AID1963865 (Molecular Pharmacology Branch, DTP, NCI, 2024).

System: KRAS PDC multicell spheroid viability
Experiment: Anticancer human tumor 825966-067-R-J1-PDC patient-derived colon carcinoma cell line growth inhibition [KRAS2]
Conditions: for IC50: curve of first compound; for viability, T/C: stronger effect = lower value
In short: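 Combination screen of spheroid viability in tumor-cell co-cultures with endothelial (HUVEC) and mesenchymal stem cell stroma. Each agent was tested in half-log dilutions, topping at clinical Cmax or at 10 microM without a known Cmax.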

[1] = second compound 0.1 µM, first compound 0.0316 µM
[2] = second compound 0.1 µM, first compound 0.1 µM
[3] = second compound 0.1 µM, first compound 0.316 µM
[4] = second compound 0.1 µM, first compound 1 µM
[5] = second compound 0.1 µM, first compound 3.16 µM
[6] = second compound 0.316 µM, first compound 0.0316 µM
[7] = second compound 0.316 µM, first compound 0.1 µM
[8] = second compound 0.316 µM, first compound 0.316 µM
[9] = second compound 0.316 µM, first compound 1 µM
[10] = second compound 0.316 µM, first compound 3.16 µM
[11] = second compound 1 µM, first compound 0.0316 µM
[12] = second compound 1 µM, first compound 0.1 µM
[13] = second compound 1 µM, first compound 0.316 µM
[14] = second compound 1 µM, first compound 1 µM
[15] = second compound 1 µM, first compound 3.16 µM
[16] = second compound 3.16 µM, first compound 0.0316 µM
[17] = second compound 3.16 µM, first compound 0.1 µM
[18] = second compound 3.16 µM, first compound 0.316 µM
[19] = second compound 3.16 µM, first compound 1 µM
[20] = second compound 3.16 µM, first compound 3.16 µM
[21] = second compound 10 µM, first compound 0.0316 µM
[22] = second compound 10 µM, first compound 0.1 µM
[23] = second compound 10 µM, first compound 0.316 µM
[24] = second compound 10 µM, first compound 1 µM
[25] = second compound 10 µM, first compound 3.16 µM
[26] = second compound 0.1 µM, first compound 10 µM
[27] = second compound 0.316 µM, first compound 10 µM
[28] = second compound 1 µM, first compound 10 µM
[29] = second compound 3.16 µM, first compound 10 µM
[30] = second compound 10 µM, first compound 10 µM
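Further: spheroids exposed to compounds for 7 days.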
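Wherever viability, T/C is given: 100% = DMSO vehicle control viability.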

CC1COCCN1c1cc(-c2ccnn2C)c2ccnc(-c3ccn[nH]3)c2n1 (stereo not given) + COc1cc2nc(C)nc(NC(C)c3cc(N)cc(C(F)(F)F)c3)c2cc1OC1CCOC1
IC50 (second compound 0.1 µM): > 3.16 µM
IC50 (second compound 0.316 µM): > 3.16 µM
IC50 (second compound 1 µM): 0.152 µM
IC50 (second compound 3.16 µM): 0.0692 µM
IC50 (second compound 10 µM): 0.0123 µM
viability, T/C (second compound 0.1 µM, first compound 0.01 µM): 106%
viability, T/C [1]: 122%
viability, T/C [2]: 67.6%
viability, T/C [3]: 55%
viability, T/C [4]: 55.8%
viability, T/C [5]: 40.1%
viability, T/C (second compound 0.316 µM, first compound 0.01 µM): 112%
viability, T/C [6]: 112%
viability, T/C [7]: 58.3%
viability, T/C [8]: 58.1%
viability, T/C [9]: 52.7%
viability, T/C [10]: 38.8%
viability, T/C (second compound 1 µM, first compound 0.01 µM): 74.6%
viability, T/C [11]: 80.4%
viability, T/C [12]: 61.5%
viability, T/C [13]: 28.3%
viability, T/C [14]: 34.8%
viability, T/C [15]: 27.1%
viability, T/C (second compound 3.16 µM, first compound 0.01 µM): 130%
viability, T/C [16]: 97.9%
viability, T/C [17]: 27.4%
viability, T/C [18]: 27.5%
viability, T/C [19]: 23.9%
viability, T/C [20]: 19.8%
viability, T/C (second compound 10 µM, first compound 0.01 µM): 56.6%
viability, T/C [21]: 21.1%
viability, T/C [22]: 7.19%
viability, T/C [23]: 3.93%
viability, T/C [24]: 2.81%
viability, T/C [25]: 0.97%

CC1OCC2(CCN(c3cnc(Sc4ccnc(N)c4Cl)c(N)n3)CC2)C1N (stereo not given) + COc1cc2nc(C)nc(NC(C)c3cc(N)cc(C(F)(F)F)c3)c2cc1OC1CCOC1
IC50 (second compound 0.1 µM): > 10 µM
IC50 (second compound 0.316 µM): 6.76 µM
IC50 (second compound 1 µM): 7.2 µM
IC50 (second compound 3.16 µM): 5.48 µM
IC50 (second compound 10 µM): 0.557 µM
viability, T/C [1]: 88.2%
viability, T/C [2]: 83.7%
viability, T/C [3]: 74%
viability, T/C [4]: 75.6%
viability, T/C [5]: 100%
viability, T/C [26]: 58%
viability, T/C [6]: 87.4%
viability, T/C [7]: 89%
viability, T/C [8]: 88%
viability, T/C [9]: 95.9%
viability, T/C [10]: 95.5%
viability, T/C [27]: 28.8%
viability, T/C [11]: 89%
viability, T/C [12]: 88%
viability, T/C [13]: 81.7%
viability, T/C [14]: 91.3%
viability, T/C [15]: 89.4%
viability, T/C [28]: 34.7%
viability, T/C [16]: 93.9%
viability, T/C [17]: 104%
viability, T/C [18]: 101%
viability, T/C [19]: 98.5%
viability, T/C [20]: 91.6%
viability, T/C [29]: 4.35%
viability, T/C [21]: 76.5%
viability, T/C [22]: 68.7%
viability, T/C [23]: 63.1%
viability, T/C [24]: 37.4%
viability, T/C [25]: 8.46%
viability, T/C [30]: 0.53%

Cn1nccc1Nc1nccc(-c2cc3c(s2)C(C)(C)N(CCN2CCOCC2)C3=O)n1 + COc1cc2nc(C)nc(NC(C)c3cc(N)cc(C(F)(F)F)c3)c2cc1OC1CCOC1
IC50 (second compound 0.1 µM): > 10 µM
IC50 (second compound 0.316 µM): > 10 µM
IC50 (second compound 1 µM): > 10 µM
IC50 (second compound 3.16 µM): 10 µM
IC50 (second compound 10 µM): 0.0952 µM
viability, T/C [1]: 105%
viability, T/C [2]: 120%
viability, T/C [3]: 146%
viability, T/C [4]: 102%
viability, T/C [5]: 83.1%
viability, T/C [26]: 72.2%
viability, T/C [6]: 110%
viability, T/C [7]: 112%
viability, T/C [8]: 126%
viability, T/C [9]: 81%
viability, T/C [10]: 83.8%
viability, T/C [27]: 67.7%
viability, T/C [11]: 114%
viability, T/C [12]: 117%
viability, T/C [13]: 121%
viability, T/C [14]: 79.3%
viability, T/C [15]: 80.9%
viability, T/C [28]: 65.7%
viability, T/C [16]: 103%
viability, T/C [17]: 130%
viability, T/C [18]: 85.7%
viability, T/C [19]: 49.7%
viability, T/C [20]: 62.5%
viability, T/C [29]: 45.6%
viability, T/C [21]: 70.3%
viability, T/C [22]: 49.1%
viability, T/C [23]: 2.05%
viability, T/C [24]: 0.83%
viability, T/C [25]: 0.32%
viability, T/C [30]: 0.87%
